In patent US12410155B2, “Salt form and crystal form of tetrahydrocyclohepta indazole compound” (Zhejiang Yangli Pharmaceutical Technology Co., Ltd., priority 2021, dated 2025):

How the values were obtained:
HCC1428 cells = experiment: HCC1428 cell proliferation inhibition assay (CTG); format: cell-based; conditions: Homo sapiens, HCC1428, 168 h, 7 days
Method: (5) HCC1428 and MDA-MB-134VI Cell Proliferation Inhibition Assay
The initial concentration of the compound of formula (I) was set at 200 nM, followed by 4-fold serial dilutions to achieve ten concentration gradients.
• 1) HCC1428 cells were cultured in RPMI 1640 complete growth medium containing 10% FBS and 1% PenStrep. • 2) When the cells in a T75 culture flask reached 80-90% cell fusion, they were digested with trypsin and collected. The cell passages used were the seventh generation for the first independent experiment and the thirteenth generation for the second independent experiment. • 3) The cells were centrifuged at 1000 rpm, resuspended in complete medium, and counted. The cell densities were 1.30×10^6 cells/mL for the first experiment and 9.50×10^5 cells/mL for the second experiment, with viability both exceeding 95%. • 4) Cell suspensions were prepared in complete medium at a density of 1.25×10^4 cells/mL for both experiments. […] 100 μL of CellTiter-Glo® reagent was added to each well. The plate was incubated at room temperature in the dark for 30 minutes. • 8) Luminescence values were read using a BMG plate reader.
The IC50 (half-maximal inhibitory concentration) of the compound was obtained using the following nonlinear fitting formula: […]

MCF-7 cells = experiment: MCF-7 cell proliferation inhibition assay (CTG); format: cell-based; conditions: Homo sapiens
Method: (4) MCF-7, T-47D, and CAMA-1 Cell Proliferation Inhibition Assay
The inhibitory effect of the test compound of formula (I) on the proliferation of MCF-7, CAMA-1, and T-47D cells was analyzed. For MCF-7 cells, ten concentration gradients ranging from 100 nM to 0.0003815 nM were tested, with three replicates for each concentration. For CAMA-1 cells, nine concentration gradients ranging from 100 nM to 0.001526 nM were tested, also with three replicates for each concentration. For T-47D cells, nine concentration gradients ranging from 2 μM to 0.00512 nM were tested, with three replicates for each concentration. Each experiment was conducted twice independently.
MCF-7 cells that reached 80% cell fusion were digested using trypsin, centrifuged, resuspended, and counted. Cell suspensions were prepared using the corresponding culture medium, and 45 μL of the suspension was added to each well of a 384-well plate. The plate was then incubated at 37° C. in a cell incubator with 5% CO2. The test compound of formula (I) was dissolved in DMSO to an initial concentration of 20 μM and subjected to a 4-fold serial dilution to achieve ten different concentrations. After overnight incubation, the diluted compound was further diluted with the corresponding cell culture medium. The resulting mixture was transferred to the respective wells of the cell plate, starting with a final concentration of 100 nM, followed by a 4-fold serial dilution to achieve ten concentrations. The positive control wells contained 2 μM fulvestrant. The plate was mixed, centrifuged, and incubated at 37° C. in a cell incubator with 5% CO2 for the specified number of days according to the above table.
After incubation for the specified time, the cell culture plate was removed, and the CTG reagent was added. The plate was thoroughly mixed, centrifuged, and incubated at room temperature for 10 minutes. The readings were taken using the Envision multi-label analyzer. Data analysis:
Positive control: cells treated with 2 μM fulvestrant; negative control: cells treated with 0.5% DMSO. […]

Q: What does the source list for `FCCCN1CC[C@H](Nc2cnc(C3=C(CC(F)(F)F)CCCc4c3ccc3[nH]nc(F)c43)cn2)C1` [Compound of formula (I)]?
A: IC50 (HCC1428 cells; First experiment): 0.49 nM; IC50 (HCC1428 cells; Mean ± SD): 1.55 ± 0.99 nM; IC50 (HCC1428 cells; Second experiment): 1.34 nM; IC50 (MCF-7 cells; MCF7, First experiment): 0.19 nM; IC50 (MCF-7 cells; MCF7, Mean ± SD): 0.18 ± 0.013 nM; IC50 (MCF-7 cells; MCF7, Second experiment): 0.16 nM
